Biological target: T1, KRAS-G12D (Homo sapiens, UniProt P01116, G12D)
T1 construct: endogenous in cells; host or cells: A-427 (ATCC), AGS, AsPc-1, Panc 04.03
Assay: KRAS-G12D degradation assay (Western Blot), A-427 cells
Assay type: cell-based
Conditions: A427 cells, 24 h, class symbols; for Dmax: A-427
In short: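 Each KRAS G12D mutant line (A-427, AGS, AsPc-1, Panc 04.03) was seeded at 5×10^5 cells/well and treated 24 h at 37 °C with 0.03–3000 nM compound (final DMSO 0.25%). KRAS in lysates was measured by Western blot, normalized to β-actin and compared with controls, giving DC50 and Dmax from curve fits.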

T1 sequence (P01116 1-188 isoform P01116-2 G12D): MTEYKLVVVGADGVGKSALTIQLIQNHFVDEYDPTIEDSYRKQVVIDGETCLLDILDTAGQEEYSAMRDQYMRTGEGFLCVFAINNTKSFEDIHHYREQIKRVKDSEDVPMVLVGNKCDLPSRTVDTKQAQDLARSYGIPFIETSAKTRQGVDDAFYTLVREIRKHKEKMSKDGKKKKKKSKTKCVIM

Structure (SMILES)	DC50 [nM]	Dmax [%]
C#Cc1c(F)ccc2cc(O)cc(-c3ncc4c(N5CC6CCC(C5)N6)nc(OCC5(CN6CCN(CCC7CCN(C(=O)c8ccc(Cl)c(N9CCC(=O)NC9=O)c8)CC7)CC6)CC5)nc4c3F)c12 [Example 3, 1-(5-(4-(2-(4-((1-(((4-(3,8-diazabicyclo[3.2.1]octan-3-yl)-7-(8-ethynyl-7-fluoro-3-hydroxynaphthalen-1-yl)-8-fluoropyrido[4,3-d]pyrimidin-2-yl)oxy)methyl)cyclopropyl)methyl)piperazin-1-yl)ethyl)piperidine-1-carbonyl)-2-chlorophenyl)dihydropyrimidine-2,4(1H,3H)-dione]	≤ 50	50 to 80
C#Cc1c(F)ccc2cc(O)cc(-c3ncc4c(N5CC6CCC(C5)N6)nc(OCC5(CN6CCN(CCCC7CCN(C(=O)c8ccc(Cl)c(N9CCC(=O)NC9=O)c8)CC7)CC6)CC5)nc4c3F)c12 [Example 4, 1-(5-(4-(3-(4-((1-(((4-(3,8-diazabicyclo[3.2.1]octan-3-yl)-7-(8-ethynyl-7-fluoro-3-hydroxynaphthalen-1-yl)-8-fluoropyrido[4,3-d]pyrimidin-2-yl)oxy)methyl)cyclopropyl)methyl)piperazin-1-yl)propyl)piperidine-1-carbonyl)-2-chlorophenyl)dihydropyrimidine-2,4(1H,3H)-dione]	≤ 50	80 to 100
C#Cc1c(F)ccc2cc(O)cc(-c3ncc4c(N5CC6CCC(C5)N6)nc(OCC5(CN6CCN(CCCCC7CCN(C(=O)c8ccc(Cl)c(N9CCC(=O)NC9=O)c8)CC7)CC6)CC5)nc4c3F)c12 [Example 5, 1-(5-(4-(4-(4-((1-(((4-(3,8-diazabicyclo[3.2.1]octan-3-yl)-7-(8-ethynyl-7-fluoro-3-hydroxynaphthalen-1-yl)-8-fluoropyrido[4,3-d]pyrimidin-2-yl)oxy)methyl)cyclopropyl)methyl)piperazin-1-yl)butyl)piperidine-1-carbonyl)-2-chlorophenyl)dihydropyrimidine-2,4(1H,3H)-dione]	≤ 50	80 to 100
C#Cc1c(F)ccc2cc(O)cc(-c3ncc4c(N5CC6CCC(C5)N6)nc(OCC5(CN6CCN(CCCC7CCC8(CC7)CCN(C(=O)c7ccc(Cl)c(N9CCC(=O)NC9=O)c7)CC8)CC6)CC5)nc4c3F)c12 [Example 7, 1-(5-(9-(3-(4-((1-(((4-(3,8-diazabicyclo[3.2.1]octan-3-yl)-7-(8-ethynyl-7-fluoro-3-hydroxynaphthalen-1-yl)-8-fluoropyrido[4,3-d]pyrimidin-2-yl)oxy)methyl)cyclopropyl)methyl)piperazin-1-yl)propyl)-3-azaspiro[5.5]undecane-3-carbonyl)-2-chlorophenyl)dihydropyrimidine-2,4(1H,3H)-dione]	≤ 50	80 to 100
C#Cc1c(F)ccc2cc(O)cc(-c3ncc4c(N5CC6CCC(C5)N6)nc(OCC5(CN6CCN(CCCC7CCN(C(=O)c8ccc(OC)c(N9CCC(=O)NC9=O)c8)CC7)CC6)CC5)nc4c3F)c12 [Example 8, 1-(5-(4-(3-(4-((1-(((4-(3,8-diazabicyclo[3.2.1]octan-3-yl)-7-(8-ethynyl-7-fluoro-3-hydroxynaphthalen-1-yl)-8-fluoropyrido[4,3-d]pyrimidin-2-yl)oxy)methyl)cyclopropyl)methyl)piperazin-1-yl)propyl)piperidine-1-carbonyl)-2-methoxyphenyl)dihydropyrimidine-2,4(1H,3H)-dione]	≤ 50	50 to 80
C#Cc1c(F)ccc2cc(O)cc(-c3ncc4c(N5CC6CCC(C5)N6)nc(OCC5(CN6CCC(CCOCC7CCN(C(=O)c8ccc(Cl)c(N9CCC(=O)NC9=O)c8)CC7)CC6)CC5)nc4c3F)c12 [Example 10]	≤ 50	80 to 100
C#Cc1c(F)ccc2cc(O)cc(-c3ncc4c(N5CC6CCC(C5)N6)nc(OCC5(CN6CCC(COCC7CCN(C(=O)c8ccc(Cl)c(N9CCC(=O)NC9=O)c8)CC7)CC6)CC5)nc4c3F)c12 [Example 13, 1-(5-(4-(((1-((1-(((4-(3,8-diazabicyclo[3.2.1]octan-3-yl)-7-(8-ethynyl-7-fluoro-3-hydroxynaphthalen-1-yl)-8-fluoropyrido[4,3-d]pyrimidin-2-yl)oxy)methyl)cyclopropyl)methyl)piperidin-4-yl)methoxy)methyl)piperidine-1-carbonyl)-2-chlorophenyl)dihydropyrimidine-2,4(1H,3H)-dione]	50 to 100	50 to 80
C#Cc1c(F)ccc2cc(O)cc(-c3ncc4c(N5CC6CCC(C5)N6)nc(OCC5(CN6CCN(CC7CCC8(CC7)CCN(C(=O)c7ccc(OC)c(N9CCC(=O)NC9=O)c7)CC8)CC6)CC5)nc4c3F)c12 [Example 14, 1-(5-(9-((4-((1-(((4-(3,8-diazabicyclo[3.2.1]octan-3-yl)-7-(8-ethynyl-7-fluoro-3-hydroxynaphthalen-1-yl)-8-fluoropyrido[4,3-d]pyrimidin-2-yl)oxy)methyl)cyclopropyl)methyl)piperazin-1-yl)methyl)-3-azaspiro[5.5]undecane-3-carbonyl)-2-methoxyphenyl)dihydropyrimidine-2,4(1H,3H)-dione]	≤ 50	80 to 100
Cc1ccc2[nH]ncc2c1-c1ncc2c(N3CC4CCC(C3)N4)nc(OCC3(CN4CCN(CC5CCC6(CC5)CCN(C(=O)c5ccc(Cl)c(N7CCC(=O)NC7=O)c5)CC6)CC4)CC3)nc2c1F [Example 16, 1-(5-(9-((4-((1-(((4-(3,8-diazabicyclo[3.2.1]octan-3-yl)-8-fluoro-7-(5-methyl-1H-indazol-4-yl)pyrido[4,3-d]pyrimidin-2-yl)oxy)methyl)cyclopropyl)methyl)piperazin-1-yl)methyl)-3-azaspiro[5.5]undecane-3-carbonyl)-2-chlorophenyl)dihydropyrimidine-2,4(1H,3H)-dione]	1000 to 10000	30 to 50
C#Cc1c(F)ccc2cc(O)cc(-c3ncc4c(N5CC6CCC(C5)N6)nc(OCC5(CN6CCN(CC7CCC8(CC7)CCN(C(=O)c7ccc(Cl)c(N9CCC(=O)N(C)C9=O)c7)CC8)CC6)CC5)nc4c3F)c12 [Example 17, 1-(5-(9-((4-((1-(((4-(3,8-diazabicyclo[3.2.1]octan-3-yl)-7-(8-ethynyl-7-fluoro-3-hydroxynaphthalen-1-yl)-8-fluoropyrido[4,3-d]pyrimidin-2-yl)oxy)methyl)cyclopropyl)methyl)piperazin-1-yl)methyl)-3-azaspiro[5.5]undecane-3-carbonyl)-2-chlorophenyl)-3-methyldihydropyrimidine-2,4(1H,3H)-dione]	1000 to 10000	< 30
C#Cc1c(F)ccc2cc(O)cc(-c3ncc4c(N5CC6CCC(C5)N6)nc(OCC5(CN6CCN(CCC7CCC8(CC7)CCN(C(=O)c7ccc(Cl)c(N9CCC(=O)NC9=O)c7)CC8)CC6)CC5)nc4c3F)c12 [Example 18, 1-(5-(9-(2-(4-((1-(((4-(3,8-diazabicyclo[3.2.1]octan-3-yl)-7-(8-ethynyl-7-fluoro-3-hydroxynaphthalen-1-yl)-8-fluoropyrido[4,3-d]pyrimidin-2-yl)oxy)methyl)cyclopropyl)methyl)piperazin-1-yl)ethyl)-3-azaspiro[5.5]undecane-3-carbonyl)-2-chlorophenyl)dihydropyrimidine-2,4(1H,3H)-dione]	≤ 50	80 to 100
CCc1cccc2cc(O)cc(-c3ncc4c(N5CC6CCC(C5)N6)nc(OCC5(CN6CCN(CCCC7CCN(C(=O)c8ccc(Cl)c(N9CCC(=O)NC9=O)c8)CC7)CC6)CC5)nc4c3F)c12 [Example 19, 1-(5-(4-(3-(4-((1-(((4-(3,8-diazabicyclo[3.2.1]octan-3-yl)-7-(8-ethyl-3-hydroxynaphthalen-1-yl)-8-fluoropyrido[4,3-d]pyrimidin-2-yl)oxy)methyl)cyclopropyl)methyl)piperazin-1-yl)propyl)piperidine-1-carbonyl)-2-chlorophenyl)dihydropyrimidine-2,4(1H,3H)-dione]	50 to 100	80 to 100
C#Cc1c(F)ccc2cc(O)cc(-c3ncc4c(N5CC6CCC(C5)N6)nc(OCC5(CN6CCC(COCCC7CCN(C(=O)c8ccc(Cl)c(N9CCC(=O)NC9=O)c8)CC7)CC6)CC5)nc4c3F)c12 [Example 21, 1-(5-(4-(2-((1-((1-(((4-(3,8-diazabicyclo[3.2.1]octan-3-yl)-7-(8-ethynyl-7-fluoro-3-hydroxynaphthalen-1-yl)-8-fluoropyrido[4,3-d]pyrimidin-2-yl)oxy)methyl)cyclopropyl)methyl)piperidin-4-yl)methoxy)ethyl)piperidine-1-carbonyl)-2-chlorophenyl)dihydropyrimidine-2,4(1H,3H)-dione]	≤ 50	80 to 100
CCc1c(F)ccc2cc(O)cc(-c3ncc4c(N5CC6CCC(C5)N6)nc(OCC5(CN6CCN(CCCC7CCN(C(=O)c8ccc(Cl)c(N9CCC(=O)NC9=O)c8)CC7)CC6)CC5)nc4c3F)c12 [Example 22, 1-(5-(4-(3-(4-((1-(((4-(3,8-diazabicyclo[3.2.1]octan-3-yl)-7-(8-ethyl-7-fluoro-3-hydroxynaphthalen-1-yl)-8-fluoropyrido[4,3-d]pyrimidin-2-yl)oxy)methyl)cyclopropyl)methyl)piperazin-1-yl)propyl)piperidine-1-carbonyl)-2-chlorophenyl)dihydropyrimidine-2,4(1H,3H)-dione]	≤ 50	50 to 80
C#Cc1c(F)ccc2cc(O)cc(-c3ncc4c(N5CC6CCC(C5)N6)nc(OCC(C)(C)CN5CCN(CCCC6CCN(C(=O)c7ccc(Cl)c(N8CCC(=O)NC8=O)c7)CC6)CC5)nc4c3F)c12 [Example 23, 1-(5-(4-(3-(4-(3-((4-(3,8-diazabicyclo[3.2.1]octan-3-yl)-7-(8-ethynyl-7-fluoro-3-hydroxynaphthalen-1-yl)-8-fluoropyrido[4,3-d]pyrimidin-2-yl)oxy)-2,2-dimethylpropyl)piperazin-1-yl)propyl)piperidine-1-carbonyl)-2-chlorophenyl)dihydropyrimidine-2,4(1H,3H)-dione]	1000 to 10000	30 to 50

Source: US20260166159A1, “KRAS G12D DEGRADATION AGENT, AND PREPARATION METHOD AND USE THEREFOR” (LEADINGTAC PHARMACEUTICAL (SHAOXING) CO., LTD., priority 2022, published 2026)
